Experimental data: ChEMBL document CHEMBL1144672, “The use of ligand-based de novo design for scaffold hopping and sidechain optimization: two case studies” (Bioorg Med Chem, 2008)

Columns and labels:
[1] = target: T1, Gonadotropin-releasing hormone receptor (Homo sapiens) (UniProt P30968); assay: Inhibition of GnRH receptor at 10 uM
T1 sequence (whole entry): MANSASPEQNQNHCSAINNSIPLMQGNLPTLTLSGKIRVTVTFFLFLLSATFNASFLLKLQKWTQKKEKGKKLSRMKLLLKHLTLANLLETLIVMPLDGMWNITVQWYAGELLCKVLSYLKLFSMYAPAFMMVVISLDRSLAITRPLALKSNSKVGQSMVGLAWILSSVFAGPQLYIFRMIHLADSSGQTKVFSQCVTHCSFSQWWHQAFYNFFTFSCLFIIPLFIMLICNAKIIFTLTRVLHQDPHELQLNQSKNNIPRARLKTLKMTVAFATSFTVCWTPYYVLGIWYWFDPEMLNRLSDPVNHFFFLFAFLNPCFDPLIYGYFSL

[2] = target: T2, Gonadotropin-releasing hormone receptor (Homo sapiens, UniProt P30968); assay: Inhibition of GnRH receptor
T2 sequence (P30968 whole entry): T1 sequence (whole entry)

SMILES	inhibition [1] [%]	Ki [2] [nM]
O=c1c2c(n(Cc3c(F)cccc3F)c(=O)n1CCN1CCc3ccccc3C1)CCN(CC1CCCC1)C2	16	
CC(CCN1CCc2c(c(=O)n(CCN3CCCCC3)c(=O)n2Cc2c(F)cccc2F)C1)CC(C)(C)C (stereo not drawn)	50	4400
Cc1cc(C)cc(-c2[nH]c3ccc(C(C)(C)C(=O)N4C5CCC4CC5)cc3c2C(C)CNCCCCc2ccnnc2)c1 (stereo not drawn)		0.7
NC(CC1CCCCC1)Cn1c(=O)c2c(n(Cc3c(F)cccc3F)c1=O)CCN(Cc1ccc(Cl)cc1)C2 (stereo not drawn)	66	3200
Cc1ccc(CN2CCc3c(c(=O)n(CC4NCCc5ccccc54)c(=O)n3Cc3c(F)cccc3F)C2)c(C)c1 (stereo not drawn)	95	110
CNC(Cn1c(=O)c2c(n(Cc3c(F)cccc3F)c1=O)CCN(Cc1ccc(C)cc1C)C2)c1ccccc1 (stereo not drawn)	100	50
CCOC(=O)c1cn(Cc2c(F)cccc2F)c2cc(-c3ccc(NC(=O)CC)cc3)c(CN(C)Cc3ccccc3)cc2c1=O		50
COc1ccc(CN2CC3CC(c4ccc(N(C)C)c5ccccc45)N4C(=O)N(CCN5CCOCC5)C(=O)C34C2)cc1NC(C)=O (stereo not drawn)		21
COc1cccc(-c2c(C)n(Cc3c(F)cccc3F)c(=O)n(CC(C)NCc3nccs3)c2=O)c1F (stereo not drawn)		6
CC(C)CN(C)CCn1c(=O)c2c(n(Cc3c(F)cccc3F)c1=O)CCN(Cc1ccc(OC(F)(F)F)cc1)C2	73	2500
Cc1ccc(CN2CCc3c(c(=O)n(CC4CCNCC4)c(=O)n3Cc3c(F)cccc3F)C2)c(C)c1	72	1900
CC(C)CN(C)CCn1c(=O)c2c(n(CCOc3ccccc3)c1=O)CCN(CCCC(F)(F)F)C2	0	
